Source: patent US9249132B2, “Substituted bicyclic aromatic compounds as S-nitrosoglutathione reductase inhibitors” (Nivalis Therapeutics, Inc., priority 2010, dated 2016)

Assays:
[1] = Mouse pharmacokinetic (PK) study; assay type: in vivo; settings: plasma, male BALB/c mice, PO 10 mg/kg, IV 2 mg/kg
Text: The mouse was used to determine the pharmacokinetics of compounds of the invention. This species is widely used to assess the bioavailability of compounds by administering both oral (PO) and intravenous (IV) test articles. Efficacy of the compounds of the invention was compared by assessing plasma exposure in male BALB/c mice either via IV or PO administration at the times of peak activity.
Compounds of the invention were reconstituted in a phosphate buffered saline (PBS)/10% Solutol (HS 15) clear solution resulting in a concentration of 0.2 mg/mL and administered to mice (2 mg/kg) as a single IV dose. Animals were dosed via the lateral tail vein. […] The plasma was transferred into labeled polypropylene tubes and frozen at −70° C. until analyzed by LC/MS/MS.
The compounds of the invention were reconstituted in 40% Propylene Glycol/40% Propylene Carbonate/20% of a 5% Sucrose clear solution resulting in a concentration of 2 mg/mL and administered to mice (10 mg/kg) as a single oral dose via gavage. […] The plasma was transferred into labeled polypropylene tubes and frozen at −70° C. until analyzed by LC/MS/MS.
Plasma samples at each timepoint were analyzed using a LC-MS/MS with a lower limit of quantification (LLOQ) of 1 ng/mL. […]
In addition to the above PK parameters, bioavailability (% F) was calculated.

[2] = test system: dextran sodium sulfate (DSS)-induced IBD; assay: Chronic treatment model of DSS-induced IBD; assay type: in vivo, mouse
Text: Acute and chronic models of dextran sodium sulfate (DSS)-induced IBD in mice were used to explore efficacy of GSNORi against this disease. Acute and chronic DSS-induced IBD are widely used and well characterized models that induce pathological changes in the colon similar to those observed in the human disease. In these models and in human disease, epithelial cells within the crypts of the colon are disrupted, leading to dysfunction of the epithelial barrier and the ensuing tissue inflammation, edema, and ulceration. GSNORi therapy may benefit IBD by restoring s-nitrosoglutathione (GSNO) levels, and thus prevent or reverse the epithelial barrier dysfunction.
Experimental IBD was induced by administration of DSS in the drinking water of male C57B1/6 mice (N=10 to 12 mice per group) for 6 consecutive days. GSNORi was dosed orally at doses of 10 mg/kg/day for 14 days starting one day after cessation of DSS exposure. Efficacy of GSNORi was assessed in a blinded fashion via endoscopy after 7 days and 14 days of GSNORi dosing and via histopathology after 14 days of GSNORi dosing using a five point scale ranging from a score=0 (normal tissue) through a score=4 (ulcerative tissue damage and marked pathological changes). Levels of circulating cytokines involved in inflammatory pathways were also assessed. The effect of GSNORi was compared to vehicle treated controls. The corticosteroid, prednisolone, was used as the positive control in this study and was administered daily at 3 mg/kg/day via oral dosing. Naïve mice (N=5) were also assessed as a normal tissue control.

[3] = test system: cigarette smoke-induced COPD; assay: Subchronic (11 day) cigarette smoke exposure COPD model; assay type: in vivo, mouse; settings: oral 10 mg/kg/day for 11 days
Description: Infiltration of inflammatory cells into the bronchoalveolar lavage fluid (BALF) and BALF levels of chemokines involved in inflammation and tissue turnover/repair were measured to assess the influences of GSNOR inhibitors on some of the early events associated with the initiation and progression of COPD. […] In animal models, changes in lung pathology are only evident after extended (several months) duration of exposure to cigarette smoke, thus making chronic models prohibitive as effective screening tools. […] The key roles of inflammation in the initiation and progression of COPD, make these short duration models relevant for initial tests of efficacy of novel therapeutics. Subchronic (11 Day) Smoke Exposure Model: Female C57B1/6 mice (N=10 per group) were exposed to cigarette smoke generated from Marlboro 100 cigarettes without filters. Exposure times were 25 min. on study day 1, 35 min. on study day 2, and 45 min. on study days 3 to 11. GSNOR inhibitors were administered one hour prior to smoke exposure on each day. GSNOR inhibitors were dosed orally at 1 to 10 mg/kg/day for 11 days. The effects of GSNOR inhibitors were assessed by quantitating the number of total cells, and leukocytes differentials in the BALF via light microscopy at 24 h after the last exposure. The effect of GSNOR inhibitors were compared to vehicle treated controls and expressed as percent inhibition of the cigarette smoke induced increases in BALF cell numbers. Roflumilast was used as the positive control for the study and was dosed at 5 mg/kg/day. A group of naïve mice (N=10) was exposed to air and dosed with vehicle as a negative control for the study.

[4] = chronic model, oral 10 mg/kg/day for up to 14 consecutive days, treatment dosing regimen

SMILES: O=C(O)c1ccc(-c2ccc3cc(O)ccc3c2)c(Cl)c1 [Example 1, 3-chloro-4-(6-hydroxynaphthalen-2-yl)benzoic acid]
- bioavailability [1]: > 40%
- colon injury (in words) ([2]; chronic DSS-induced IBD): attenuated colon injury
- decrease of percent of mice presenting with severe colon injury scores via endoscopy, of vehicle control [2, 4]: 50%
- decrease of percent of mice presenting with severe colon injury scores via histopathology, of vehicle control [2, 4]: 17%
- inhibition of smoke-induced increase in lymphocytes in BAL [3]: 41%
- inhibition of smoke-induced increase in macrophages in BAL ([3]; p<0.05): 40%
- inhibition of smoke-induced increase in neutrophils in BAL ([3]; p<0.05): 49%
- inhibition of smoke-induced increase in total cells in BAL ([3]; p<0.05): 40%
